{"source": "ChEMBL document CHEMBL4385615", "about": "“Design and Synthesis of Type-IV Inhibitors of BRAF Kinase That Block Dimerization and Overcome Paradoxical MEK/ERK Activation” (J Med Chem, 2019)", "key": {"[1]": {"biological_target": "T1, Serine/threonine-protein kinase B-raf (Homo sapiens, UniProt P15056)", "T1 sequence (P15056 whole entry)": "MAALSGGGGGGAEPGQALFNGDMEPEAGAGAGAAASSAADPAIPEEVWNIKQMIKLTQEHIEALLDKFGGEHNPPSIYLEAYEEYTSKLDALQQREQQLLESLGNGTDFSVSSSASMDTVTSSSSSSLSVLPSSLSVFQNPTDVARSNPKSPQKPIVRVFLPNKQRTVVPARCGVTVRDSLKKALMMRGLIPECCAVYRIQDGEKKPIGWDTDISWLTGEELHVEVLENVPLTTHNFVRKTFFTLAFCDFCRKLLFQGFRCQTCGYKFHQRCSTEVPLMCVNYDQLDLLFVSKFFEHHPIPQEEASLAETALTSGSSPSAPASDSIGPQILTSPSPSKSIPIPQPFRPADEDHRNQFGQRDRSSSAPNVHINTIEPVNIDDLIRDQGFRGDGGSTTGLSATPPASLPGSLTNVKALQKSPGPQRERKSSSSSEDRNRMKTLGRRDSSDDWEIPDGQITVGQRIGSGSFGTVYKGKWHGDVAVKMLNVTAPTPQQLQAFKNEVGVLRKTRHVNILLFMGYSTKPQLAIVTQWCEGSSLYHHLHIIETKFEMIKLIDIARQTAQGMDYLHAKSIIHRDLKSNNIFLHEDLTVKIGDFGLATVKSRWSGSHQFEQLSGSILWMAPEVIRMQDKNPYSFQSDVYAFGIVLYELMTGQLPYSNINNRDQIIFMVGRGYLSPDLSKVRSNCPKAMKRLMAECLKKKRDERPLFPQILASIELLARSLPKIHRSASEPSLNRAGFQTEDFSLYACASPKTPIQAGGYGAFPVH", "experiment": "Binding affinity to BRAF (unknown origin) by intrinsic tryptophan fluorescence assay; call rule not given here"}, "[2]": {"tested_on": "MCF-10A", "experiment": "Antiproliferative activity against EGF-dependent human MCF10A cells assessed as inhibition of colony growth at 1.5 uM supplemented with fresh medium containing compound every 2 days for 11 days", "assay_type": "functional"}, "[3]": {"biological_target": "T1, Serine/threonine-protein kinase B-raf", "experiment": "Inhibition of BRAF in NRAS Q61K mutant-driven human SBcl2 cells assessed as suppression of vemurafenib-induced phosphorylation of ERK expression administered via electroporation for 30 mins followed by vemurafenib addition and measured after 1 hr by Western blot analysis"}, "[4]": {"tested_on": "MCF-10A", "experiment": "Antiproliferative activity against EGF-dependent human MCF10A cells assessed as inhibition of colony growth at 2 uM supplemented with fresh medium containing compound every 2 days for 11 days", "assay_type": "functional"}, "[5]": {"biological_target": "T1, Serine/threonine-protein kinase B-raf", "experiment": "Inhibition of BRAF in NRAS Q61K mutant-driven human SBcl2 cells assessed as suppression of vemurafenib-induced phosphorylation of MEK expression at 300 uM administered via electroporation for 30 mins followed by vemurafenib addition and measured after 1 hr by Western blot analysis"}, "[6]": {"biological_target": "T1, Serine/threonine-protein kinase B-raf", "experiment": "Inhibition of BRAF in NRAS Q61K mutant-driven human SBcl2 cells assessed as suppression of vemurafenib-induced phosphorylation of MEK expression administered via electroporation for 30 mins followed by vemurafenib addition and measured after 1 hr by Western blot analysis"}, "[7]": {"biological_target": "T1, Serine/threonine-protein kinase B-raf", "experiment": "Inhibition of BRAF in NRAS Q61K mutant-driven human SBcl2 cells assessed as suppression of vemurafenib-induced phosphorylation of ERK expression at 300 uM administered via electroporation for 30 mins followed by vemurafenib addition and measured after 1 hr by Western blot analysis"}}, "note": "Peptide text beside a SMILES is read from it.", "data": [{"smiles": "CSCC[C@@H]1NC(=O)[C@H](Cc2ccccc2)NC(=O)[C@H](CC(C)C)NC(=O)[C@H](CC(C)C)NC(=O)[C@H](CCC(=O)O)NC(=O)[C@H](CC(N)=O)NC(=O)[C@H](C(C)C)NC(=O)[C@H](Cc2cnc[nH]2)NC(=O)[C@H](CCCNC(=N)N)NC(=O)[C@H](CCCCN)NC(=O)[C@H](CCCCN)NC(=O)[C@H](CCCNC(=N)N)NC(=O)[C@H](CC(C)C)NC(=O)CNC1=O", "values": [{"measurement": "Kd", "setting": "[1]; read-out: Kd", "result": 1890, "unit": "nM"}]}, {"smiles": "CC[C@H](C)[C@H](NC(=O)[C@H](CC(N)=O)NC(=O)[C@@H](NC(=O)[C@H](Cc1cnc[nH]1)NC(=O)[C@H](CCCNC(=N)N)NC(=O)[C@@H](NC(=O)[C@H](CCCCN)NC(=O)[C@H](CCCNC(=N)N)NC(=O)[C@H](CC(C)C)NC(=O)[C@@H](NC(=O)CN)C(C)C)[C@@H](C)O)C(C)C)C(=O)N[C@@H](C)C(=O)N[C@@H](CC(C)C)C(=O)N[C@@H](Cc1ccccc1)C(=O)N[C@@H](CCSC)C(=O)NCC(=O)N[C@@H](Cc1ccc(O)cc1)C(=O)N[C@@H](CO)C(=O)N[C@H](C(=O)O)[C@@H](C)O", "values": [{"measurement": "Kd", "setting": "[1]; read-out: Kd", "result": 9800, "unit": "nM"}]}, {"smiles": "CC[C@H](C)[C@H](NC(=O)[C@H](CC(N)=O)NC(=O)[C@H](C)NC(=O)[C@H](Cc1cnc[nH]1)NC(=O)[C@H](CCCNC(=N)N)NC(=O)[C@@H](NC(=O)[C@H](CCCCN)NC(=O)[C@H](CCCNC(=N)N)NC(=O)[C@H](CC(C)C)NC(=O)[C@@H](NC(=O)CN)C(C)C)[C@@H](C)O)C(=O)N[C@@H](CC(C)C)C(=O)N[C@@H](CC(C)C)C(=O)N[C@@H](Cc1ccccc1)C(=O)N[C@@H](CCSC)C(=O)NCC(=O)N[C@@H](Cc1ccc(O)cc1)C(=O)N[C@@H](CO)C(=O)N[C@H](C(=O)O)[C@@H](C)O", "values": [{"measurement": "Kd", "setting": "[1]; read-out: Kd", "result": 4750, "unit": "nM"}]}, {"smiles": "CC[C@H](C)[C@H](NC(=O)[C@H](CC(N)=O)NC(=O)[C@@H](NC(=O)[C@H](Cc1cnc[nH]1)NC(=O)[C@H](Cc1cnc[nH]1)NC(=O)[C@@H](NC(=O)[C@H](CCCCN)NC(=O)[C@H](CCCNC(=N)N)NC(=O)[C@H](CC(C)C)NC(=O)[C@@H](NC(=O)CN)C(C)C)[C@@H](C)O)C(C)C)C(=O)N[C@@H](CC(C)C)C(=O)NCC(=O)N[C@@H](Cc1ccccc1)C(=O)N[C@@H](Cc1c[nH]c2ccccc12)C(=O)NCC(=O)N[C@@H](Cc1ccc(O)cc1)C(=O)N[C@@H](CO)C(=O)N[C@H](C(=O)O)[C@@H](C)O", "note": "(H-GVLRKTHHVNILGFWGYST-OH)", "values": [{"measurement": "Kd", "setting": "[1]", "result": "Not Active"}]}, {"smiles": "CC[C@H](C)[C@H](NC(=O)[C@H](C)NC(=O)[C@@H](NC(=O)[C@H](Cc1cnc[nH]1)NC(=O)[C@H](CCCNC(=N)N)NC(=O)[C@@H](NC(=O)[C@H](CCCCN)NC(=O)[C@H](CCCNC(=N)N)NC(=O)[C@H](CC(C)C)NC(=O)[C@@H](N)C(C)C)[C@@H](C)O)C(C)C)C(=O)N[C@@H](CC(C)C)C(=O)N[C@@H](CC(C)C)C(=O)N[C@@H](Cc1ccccc1)C(=O)N[C@@H](CCSC)C(=O)NCC(=O)O", "note": "(H-VLRKTRHVAILLFMG-OH)", "values": [{"measurement": "Kd", "setting": "[1]", "result": "Not Active"}]}, {"smiles": "CC[C@H](C)[C@H](NC(=O)[C@H](CC(N)=O)NC(=O)[C@@H](NC(=O)[C@H](Cc1ccccc1)NC(=O)[C@H](CCCNC(=N)N)NC(=O)[C@@H](NC(=O)[C@H](CCCCN)NC(=O)[C@H](CCCNC(=N)N)NC(=O)[C@H](CC(C)C)NC(=O)[C@@H](NC(=O)CN)C(C)C)[C@@H](C)O)C(C)C)C(=O)N[C@@H](CC(C)C)C(=O)N[C@@H](CC(C)C)C(=O)N[C@@H](Cc1ccccc1)C(=O)N[C@@H](CCSC)C(=O)NCC(=O)N[C@@H](Cc1ccc(O)cc1)C(=O)N[C@@H](CO)C(=O)N[C@H](C(=O)O)[C@@H](C)O", "values": [{"measurement": "Kd", "setting": "[1]", "result": "Not Active"}]}, {"smiles": "CC[C@H](C)[C@H](NC(=O)[C@H](CC(N)=O)NC(=O)[C@@H](NC(=O)[C@H](Cc1cnc[nH]1)NC(=O)[C@H](CCCNC(=N)N)NC(=O)[C@@H](NC(=O)[C@H](CCCCN)NC(=O)[C@H](CCCNC(=N)N)NC(=O)[C@H](CC(C)C)NC(=O)[C@@H](NC(=O)CN)C(C)C)[C@@H](C)O)C(C)C)C(=O)N[C@@H](CC(C)C)C(=O)N[C@@H](CC(C)C)C(=O)N[C@@H](CC(=O)O)C(=O)N[C@@H](CCSC)C(=O)NCC(=O)N[C@@H](Cc1ccc(O)cc1)C(=O)N[C@@H](CO)C(=O)N[C@H](C(=O)O)[C@@H](C)O", "values": [{"measurement": "Kd", "setting": "[1]", "result": "Not Active"}]}, {"smiles": "CC[C@H](C)[C@H](NC(=O)[C@H](CC(N)=O)NC(=O)[C@@H](NC(=O)[C@H](Cc1cnc[nH]1)NC(=O)[C@H](CCCNC(=N)N)NC(=O)[C@@H](NC(=O)[C@H](CCCCN)NC(=O)[C@H](CCCNC(=N)N)NC(=O)[C@H](CC(C)C)NC(=O)[C@@H](N)C(C)C)[C@@H](C)O)C(C)C)C(=O)N[C@@H](CC(C)C)C(=O)N[C@@H](CC(C)C)C(=O)N[C@@H](Cc1ccccc1)C(=O)N[C@@H](CCSC)C(=O)NCC(=O)O", "values": [{"measurement": "inhibition (INH)", "setting": "[2]", "result": 100, "unit": "%"}]}, {"smiles": "CC[C@H](C)[C@H](NC(=O)[C@H](CC(N)=O)NC(=O)[C@@H](NC(=O)[C@H](Cc1cnc[nH]1)NC(=O)[C@H](CCCNC(=N)N)NC(=O)[C@@H](NC(=O)[C@H](CCCCN)NC(=O)[C@H](CCCNC(=N)N)NC(=O)[C@H](CC(C)C)NC(=O)[C@@H](NC(=O)CN)C(C)C)[C@@H](C)O)C(C)C)C(=O)N[C@@H](CC(C)C)C(=O)N[C@@H](CC(C)C)C(=O)N[C@@H](Cc1ccccc1)C(=O)N[C@@H](CCSC)C(=O)NCC(=O)N[C@@H](Cc1ccc(O)cc1)C(=O)N[C@@H](CO)C(=O)N[C@H](C(=O)O)[C@@H](C)O", "values": [{"measurement": "inhibition", "setting": "[3]", "result": "Dose-dependent effect"}, {"measurement": "inhibition (INH)", "setting": "[4]", "result": 100, "unit": "%"}, {"measurement": "inhibition", "setting": "[5]", "result": 100, "unit": "%"}, {"measurement": "inhibition", "setting": "[6]", "result": "Dose-dependent effect"}, {"measurement": "inhibition", "setting": "[7]", "result": 100, "unit": "%"}]}, {"smiles": "CC[C@H](C)[C@H](NC(=O)[C@H](CC(N)=O)NC(=O)[C@@H](NC(=O)[C@H](Cc1cnc[nH]1)NC(=O)[C@H](CCCNC(=N)N)NC(=O)[C@@H](NC(=O)[C@H](CCCCN)NC(=O)[C@H](CC(C)C)NC(=O)[C@H](CC(C)C)NC(=O)[C@@H](NC(=O)CN)C(C)C)[C@@H](C)O)C(C)C)C(=O)N[C@@H](CC(C)C)C(=O)N[C@@H](CC(C)C)C(=O)N[C@@H](Cc1ccccc1)C(=O)N[C@@H](CCSC)C(=O)NCC(=O)N[C@@H](Cc1ccc(O)cc1)C(=O)N[C@@H](CO)C(=O)N[C@H](C(=O)O)[C@@H](C)O", "values": [{"measurement": "Kd", "setting": "[1]; read-out: Kd", "result": 540, "unit": "nM"}]}, {"smiles": "CC[C@H](C)[C@H](NC(=O)[C@H](CC(N)=O)NC(=O)[C@@H](NC(=O)[C@H](Cc1cnc[nH]1)NC(=O)[C@H](CCCNC(=N)N)NC(=O)[C@H](CC(=O)O)NC(=O)[C@H](CCCCN)NC(=O)[C@H](CCCNC(=N)N)NC(=O)[C@H](CC(C)C)NC(=O)[C@@H](NC(=O)CN)C(C)C)C(C)C)C(=O)N[C@@H](CC(C)C)C(=O)N[C@@H](CC(C)C)C(=O)N[C@@H](Cc1ccccc1)C(=O)N[C@@H](CCSC)C(=O)NCC(=O)N[C@@H](Cc1ccc(O)cc1)C(=O)N[C@@H](CO)C(=O)N[C@H](C(=O)O)[C@@H](C)O", "values": [{"measurement": "Kd", "setting": "[1]; read-out: Kd", "result": 2200, "unit": "nM"}]}, {"smiles": "CC[C@H](C)[C@H](NC(=O)[C@H](CC(C)C)NC(=O)[C@@H](NC(=O)[C@H](CC(N)=O)NC(=O)[C@@H](NC(=O)[C@H](Cc1cnc[nH]1)NC(=O)[C@H](CCCNC(=N)N)NC(=O)[C@@H](NC(=O)[C@H](CCCCN)NC(=O)[C@H](CCCNC(=N)N)NC(=O)[C@H](CC(C)C)NC(=O)[C@@H](NC(=O)CN)C(C)C)[C@@H](C)O)C(C)C)[C@@H](C)CC)C(=O)N[C@@H](Cc1ccccc1)C(=O)N[C@@H](CCSC)C(=O)NCC(=O)N[C@@H](Cc1ccc(O)cc1)C(=O)N[C@@H](CO)C(=O)N[C@H](C(=O)O)[C@@H](C)O", "values": [{"measurement": "Kd", "setting": "[1]; read-out: Kd", "result": 4100, "unit": "nM"}]}, {"smiles": "CC[C@H](C)[C@H](NC(=O)[C@H](CC(N)=O)NC(=O)[C@@H](NC(=O)[C@H](Cc1cnc[nH]1)NC(=O)[C@H](CCCNC(=N)N)NC(=O)[C@@H](NC(=O)[C@H](CCCCN)NC(=O)[C@H](CCCNC(=N)N)NC(=O)[C@H](CC(C)C)NC(=O)[C@@H](NC(=O)CN)C(C)C)[C@@H](C)O)C(C)C)C(=O)N[C@@H](CC(C)C)C(=O)N[C@@H](CC(C)C)C(=O)N[C@@H](Cc1ccccc1)C(=O)N[C@@H](CCSC)C(=O)NCC(=O)O", "note": "(H-GVLRKTRHVNILLFMG-OH)", "values": [{"measurement": "Kd", "setting": "[1]; read-out: Kd", "result": 1880, "unit": "nM"}]}, {"smiles": "CC[C@H](C)[C@H](NC(=O)[C@H](CC(N)=O)NC(=O)[C@@H](NC(=O)[C@H](Cc1cnc[nH]1)NC(=O)[C@H](CCCNC(=N)N)NC(=O)[C@@H](NC(=O)[C@H](CCCCN)NC(=O)[C@H](CCC(=O)O)NC(=O)[C@H](CC(C)C)NC(=O)[C@@H](NC(=O)CN)C(C)C)[C@@H](C)O)C(C)C)C(=O)N[C@@H](CC(C)C)C(=O)N[C@@H](CC(C)C)C(=O)N[C@@H](Cc1ccccc1)C(=O)N[C@@H](CCSC)C(=O)NCC(=O)N[C@@H](Cc1ccc(O)cc1)C(=O)N[C@@H](CO)C(=O)N[C@H](C(=O)O)[C@@H](C)O", "values": [{"measurement": "Kd", "setting": "[1]; read-out: Kd", "result": 1090, "unit": "nM"}]}]}
